Assay results taken from ChEMBL document CHEMBL4118249, “Discovery and Identification of Small Molecules as Methuosis Inducers with in Vivo Antitumor Activities” (J Med Chem, 2018).

Tests used:
MDA-MB-231 [1] = assay: Induction of methuosis in human MDA-MB-231 cells assessed as increase in vacuole formation at 1 uM after 24 hrs by phase contrast microscopic analysis relative to control; assay type: functional
MDA-MB-231 [2] = assay: Induction of methuosis in human MDA-MB-231 cells assessed as increase in vacuole formation at 10 uM after 24 hrs by phase contrast microscopic analysis relative to control; assay type: functional

## Cc1ccc(NC(=O)c2cccc(C(F)(F)F)c2)cc1Nc1cc(-c2ccncc2)nc2[nH]ccc12
MDA-MB-231 [1]
  Activity: 1.46%
MDA-MB-231 [2]
  Activity: 96.34%

## Cc1ccc(NC(=O)c2cccc(C(F)(F)F)c2)cc1Nc1cc(-c2cccc(N)c2)nc2[nH]ccc12
MDA-MB-231 [1]
  Activity: 0.27%
MDA-MB-231 [2]
  Activity: 1.63%

## Cc1ccc(C(=O)Nc2cc(CN3CCN(C)CC3)cc(C(F)(F)F)c2)cc1Nc1cc(-c2cccnc2)nc2[nH]ccc12
MDA-MB-231 [1]
  Activity: 0.62%
MDA-MB-231 [2]
  Activity: 0%

## Cc1ccc(NC(=O)c2cccc(C(F)(F)F)c2)cc1Nc1cc(-c2cccnc2)nc2c1ccn2C
MDA-MB-231 [1]
  Activity: 16.08%
MDA-MB-231 [2]
  Activity: 96.27%

## Cc1ccc(C(=O)Nc2cc(C(F)(F)F)cc(C(F)(F)F)c2)cc1Nc1cc(-c2cccnc2)nc2[nH]ccc12
MDA-MB-231 [1]
  Activity: 0%
MDA-MB-231 [2]
  Activity: 0%

## Cc1ccc(C(=O)Nc2cccc(OC(F)(F)F)c2)cc1Nc1cc(-c2cccnc2)nc2[nH]ccc12
MDA-MB-231 [1]
  Activity: 38.57%
MDA-MB-231 [2]
  Activity: 99.66%

## Cc1ccc(NC(=O)c2cccc(C(F)(F)F)c2)cc1Nc1cc(-c2ccsc2)nc2[nH]ccc12
MDA-MB-231 [1]
  Activity: 0%
MDA-MB-231 [2]
  Activity: 0.21%

## O=C(Nc1cccc(C(F)(F)F)c1)c1cccc(Nc2cc(-c3cccnc3)nc3[nH]ccc23)c1
MDA-MB-231 [1]
  Activity: 3.78%
MDA-MB-231 [2]
  Activity: 80.23%

## Cc1ccc(C(=O)N2CCOCC2)cc1Nc1cc(-c2cccnc2)nc2[nH]ccc12
MDA-MB-231 [1]
  Activity: 0%
MDA-MB-231 [2]
  Activity: 0%

## Cc1cccc(NC(=O)c2ccc(C)c(Nc3cc(-c4cccnc4)nc4[nH]ccc34)c2)c1
MDA-MB-231 [1]
  Activity: 11.24%
MDA-MB-231 [2]
  Activity: 97.68%

## COc1cccc(NC(=O)c2ccc(C)c(Nc3cc(-c4cccnc4)nc4[nH]ccc34)c2)c1
MDA-MB-231 [1]
  Activity: 76.86%
MDA-MB-231 [2]
  Activity: 100%
